Earlier results as cited in patent US10472401B2, “Peptides and combination of peptides for use in immunotherapy against ovarian cancer and other cancers” (immatics biotechnologies GmbH, priority 2015, dated 2019).

Tests used:
PLA2G6 = molecular target: T1, PLA2G6 (Homo sapiens, UniProt O60733); conditions: cited from earlier work
T1 construct: host or cells: ovarian cancer cells
T1 sequence (O60733 1-806): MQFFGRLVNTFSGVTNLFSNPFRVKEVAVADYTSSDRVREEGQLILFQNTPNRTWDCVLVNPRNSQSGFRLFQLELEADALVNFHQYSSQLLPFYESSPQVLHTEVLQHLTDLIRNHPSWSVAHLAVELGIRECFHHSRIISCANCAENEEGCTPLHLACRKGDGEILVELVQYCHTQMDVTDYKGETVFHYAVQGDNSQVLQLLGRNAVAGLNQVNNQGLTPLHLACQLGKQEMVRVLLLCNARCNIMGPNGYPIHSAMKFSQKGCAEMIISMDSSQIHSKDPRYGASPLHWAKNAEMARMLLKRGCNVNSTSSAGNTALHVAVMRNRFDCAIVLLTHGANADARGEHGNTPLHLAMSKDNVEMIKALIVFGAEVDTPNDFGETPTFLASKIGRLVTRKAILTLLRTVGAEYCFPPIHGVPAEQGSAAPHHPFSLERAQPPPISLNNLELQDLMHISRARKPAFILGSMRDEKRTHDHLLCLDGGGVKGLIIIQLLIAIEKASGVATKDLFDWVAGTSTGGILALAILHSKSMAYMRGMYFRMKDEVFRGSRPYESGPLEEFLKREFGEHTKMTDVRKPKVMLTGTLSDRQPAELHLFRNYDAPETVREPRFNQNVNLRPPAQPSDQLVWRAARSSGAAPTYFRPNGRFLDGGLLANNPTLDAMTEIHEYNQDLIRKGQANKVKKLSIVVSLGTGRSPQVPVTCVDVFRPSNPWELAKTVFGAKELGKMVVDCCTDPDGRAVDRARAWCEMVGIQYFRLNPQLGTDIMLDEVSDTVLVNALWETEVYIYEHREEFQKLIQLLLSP

UBE2V1 = conditions: cited from earlier work
lung tumorigenesis = conditions: TLE1 transgenic mice; cited from earlier work

O=C1O/C(=C/Br)CCC1c1cccc2ccccc12 (stereo not drawn) [Bromoenol lactone]
apoptosis and cell cycle of ovarian cancer cells (PLA2G6): increase in apoptosis in ovarian cancer cells as well as inducing cell cycle arrest in S- and G2/M-phases

Cc1ccc(S(=O)(=O)c2ccc([N+](=O)[O-])o2)cc1 [NSC697923]
proliferation and survival of diffuse large B-cell lymphoma cells (UBE2V1): inhibit proliferation and survival of diffuse large B-cell lymphoma cells

CC(/C=C/C(=O)NO)=C\[C@@H](C)C(=O)c1ccc(N(C)C)cc1 [trichostatin A]
lung tumorigenesis (lung tumorigenesis): significantly inhibited lung tumorigenesis
